Earlier results on three molecules are cited in US20070218480A1, “DETECTION AND DIAGNOSIS OF SMOKING RELATED CANCERS” (THE BOARD OF REGENTS OF THE UNIVERSITY OF TEXAS SYSTEM, priority 2006, published 2007).

The conditions of series [1]: stored at in a dry, airtight, light-resistant environment.
For series [2] the following is noted: mice.

Like-named read-outs stand apart in the source and are kept apart here.

Turning to `COc1cc2ncnc(Nc3ccc(F)c(Cl)c3)c2cc1OCCCN1CCOCC1` [gefitinib], the “objective response (OR)” value with NSCLC patients (HER2 FISH-negative (no or low gain) NSCLC patients treated with gefitinib) is 6.4%. Moreover, in the series with NSCLC patients (HER2 FISH-negative patients), the “disease control rate (DCR)” value is 33.3%, the “overall survival (OS)” value is 8.4 months and the “time to progression (TTP)” value was 2.7 months. The “objective response (OR)” value in the series on NSCLC patients (HER2 FISH-positive (high copy number) NSCLC patients treated with gefitinib) is listed as 34.8%. In the series on NSCLC patients (HER2 FISH-positive patients), the “disease control rate (DCR)” value was 56.5%, the “overall survival (OS)” value is 20.8 months and the “time to progression (TTP)” value was 9.05 months.
As for `CC[C@@]1(O)C(=O)OCc2c1cc1n(c2=O)Cc2cc3ccccc3nc2-1` [Camptothecin], the storage stability result in series [1] is “at least two”.
Regarding Bleomycin, the tissue distribution entry in series [2] was “high concentrations of bleomycin are found in the skin, lungs, kidneys, peritoneum, and lymphatics”.
